Measured values published in patent US9718770B2, “Substituted thioureas as heat shock protein 70 inhibitors” (Institute of Pharmacology and Toxicology Academy of …, priority 2013, dated 2017).

How the values were obtained:
BT474 = experiment: CDI of example compounds and Lapatinib (ATPlite cell survival); type: cell-based; parameters: key: CDI = AB/(A×B); <1 synergistic; conditions: compound 5 μM + Lapatinib 1 μM, 72 h; Lapatinib-sensitive human breast cancer cells; CDI<1 synergistic, <0.7 very significant, >1 antagonistic
Procedure: (§1) Cells: (BT474 and SK-BR3 are Lapatinib-sensitive human breast cancer cell strains; BT/LapR and SK/LapR are secondary Lapatinib-resistant human breast cancer cell strains upon Lapatinib stimulation; MDA-MB-361 and MDA-MB-453 are natural Lapatinib-resistant human breast cancer cell strains. BT474, MDA-MB-361, SK-BR3 and MDA-MB-453 are from American Type Culture Collection (ATCC))
(§2) In a 100 mm culture dish full of adherent cells, digestion with 1 ml 0.25% pancreatin (GIBCO) was carried out at 37° C. for 5 min, and the reaction was stopped with 2 ml medium (containing 10% FBS, GIBCO). The cells were dispersed and collected. After cell count, the cells were diluted to a concentration of 1×10^5 cells/ml, and were seeded to a 96-well plate at 50 μl/well, 5000 cell/well, 60 wells in total, PBS instead of cells was added to the wells of the outmost circle, and the incubation was carried out at 37° C. for 24 h for adherence.
(§3) For the sample group, samples to be tested were diluted with DMSO to a final concentration of 5 μM; to control wells, the medium containing the same concentration of solvent corresponding to the compound was added, the concentrations of the compounds were identical in each well, 5 wells in parallel were set for each concentration, 25 μL/well, and 25 μL medium was added to each well (for the combination group, 25 μL Lapatinib was added to reach a final concentration of 1 μM). The incubation was carried out at 37° C. for 72 h.
(§4) To each well, 50 μL ATPlite kit substrate solution was added. The plate was under shaking for 3 min, and was then placed in dark for 10 min. The lysis supernatant was drawn at 100 μL/well, and placed in a luminescent plate. The incubated luminescent plate was placed in an iluminescence apparatus, and the iluminescent value was read.
(§5) Data Processing Cell survival rate (%)=Experimental group RLU/control group RLU×100%
(§6) Coefficient of drug interaction (CDI) is used to evaluate the interaction of two drugs, CDI is calculated in accordance with the following formula: CDI=AB/(A×B)×100%. The calculation is performed according to the number of live cells (luminescent value), if CDI<1, the two drugs have a synergistic effect; if CDI<0.7, the synergistic effect is very significant; if CDI=1, the effect of the two drugs in combination is the sum of the effects of the two drugs; if CDI>1, the two drugs have an antagonistic effect.

MDA-MB-361 = experiment: as above; type: cell-based; parameters: key: CDI = AB/(A×B); <1 synergistic; conditions: compound 5 μM + Lapatinib 1 μM, 72 h; natural Lapatinib-resistant human breast cancer cells; CDI<1 synergistic
Procedure: as §1, §2, §3, §4, §5, §6

MDA-MB-453 = experiment: as above; type: cell-based; parameters: key: CDI = AB/(A×B); <1 synergistic; conditions: compound 5 μM + Lapatinib 1 μM, 72 h; natural Lapatinib-resistant human breast cancer cells; CDI<1 synergistic
Procedure: as §1, §2, §3, §4, §5, §6

SK-BR3 = experiment: as above; type: cell-based; parameters: key: CDI = AB/(A×B); <1 synergistic; conditions: compound 5 μM + Lapatinib 1 μM, 72 h; Lapatinib-sensitive human breast cancer cells; CDI<1 synergistic
Procedure: as §1, §2, §3, §4, §5, §6

BT/Lap^R1.0 = experiment: as above; type: cell-based; conditions: compound 5 μM + Lapatinib 1 μM, 72 h; secondary Lapatinib-resistant human breast cancer cells; CDI<1 synergistic
Procedure: as §1, §2, §3, §4, §5, §6

SK/Lap^R1.0 = experiment: as above; type: cell-based; conditions: compound 5 μM + Lapatinib 1 μM, 72 h; secondary Lapatinib-resistant human breast cancer cells; CDI<1 synergistic
Procedure: as §1, §2, §3, §4, §5, §6

Hsp70 ATPase = biological target: T1, Hsp70 ATPase (Homo sapiens, UniProt P0DMV8); experiment: Inhibition of Hsp70 ATPase activity (malachite green); type: biochemical; conditions: 200 μM; repeated screening carried out twice; Hsp70/Hsp40, 1 mM ATP; read-out: Inhibitory rate (%) on activity of Hsp70 ATPase
T1 construct: made in house; host or cells: E. coli
T1 sequence (P0DMV8 2-641 limits assumed): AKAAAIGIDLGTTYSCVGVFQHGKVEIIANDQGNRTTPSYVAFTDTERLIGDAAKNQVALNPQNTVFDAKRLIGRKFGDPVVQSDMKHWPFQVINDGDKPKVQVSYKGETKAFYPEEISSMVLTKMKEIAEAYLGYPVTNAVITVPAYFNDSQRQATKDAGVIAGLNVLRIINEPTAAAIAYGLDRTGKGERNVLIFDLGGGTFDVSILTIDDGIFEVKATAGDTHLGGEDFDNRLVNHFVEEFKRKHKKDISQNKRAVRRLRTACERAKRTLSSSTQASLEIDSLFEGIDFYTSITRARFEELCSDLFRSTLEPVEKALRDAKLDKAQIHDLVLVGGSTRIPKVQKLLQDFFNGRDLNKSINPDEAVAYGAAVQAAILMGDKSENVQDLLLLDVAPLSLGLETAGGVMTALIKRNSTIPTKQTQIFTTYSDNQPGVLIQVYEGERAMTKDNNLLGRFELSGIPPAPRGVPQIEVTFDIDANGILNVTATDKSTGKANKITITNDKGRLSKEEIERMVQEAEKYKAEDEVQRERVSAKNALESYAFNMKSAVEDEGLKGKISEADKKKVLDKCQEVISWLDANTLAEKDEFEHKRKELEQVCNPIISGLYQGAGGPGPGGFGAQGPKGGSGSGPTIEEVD
Procedure: (1) Protein: Humanized Hsp70, Hsp40, expressed by E. coli.
(2) Sample to be tested: 26 compound solids with different colors and states. Positive drugs AZ (CAS:1054543-47-3) and VER 155008 (CAS: 1134156-31-2) were synthesized in the laboratory.
(4) ATPase Assay buffer: • 0.017% Triton X-100; • 100 mM Tris-HCl; • 20 mM KCl; • 6 mM MgCl2, pH 7.4.
1) 13.08 μl DnaK (0.15 mg/mL, 2.14 μM), 1.96 μl DnaJ (1 mg/mL, 25 μM) were dissolved in 7.96 μl Assay Buffer (0.017% Triton X-100, 100 mM Tris-HCl, 20 mM KCl, and 6 mM MgCl2, pH 7.4), and the resultant solution was added to each well of the 96 well plate;
2) to each well of the 96 well plate, 1 μL sample to be tested (5 mM) or DMSO (solvent) was added, and vortexed with a Vortex agitator for 10 min; and then standing at 37° C. for 30 min;
3) to each well, 1 μL 25 mM ATP was added, to trigger the enzymatic reaction; (in each well, the final reaction volume was 25 μL, the final concentration of DnaK was 1.12 μM, the final concentration of DnaJ was 1.96 μM, the final concentration of DMSO was 4%, the final concentration of Triton X-100 was 0.01%, the final concentration of ATP was 1 mM, and the final concentration of sample to be tested was 200 μM), the enzymatic reaction was carried out at 37° C. for 3 h;
4) 80 μL Malachite green staining solution was then added to each well, and was vortexed gently;
5) 10 μL of 34% citrate sodium was then added immediately, and vortexed gently, to stop the ATP hydrolysis not caused by ATPase;
6) the resultant mixture was mixed thoroughly at 37° C. for 15 min, and OD620 was measured.
The inhibitory rate of Hsp70 ATPase activity is calculated in accordance with the following formula: Inhibitory rate (%)=(DMSO well OD−Experimental well OD)/(DMSO well OD−Blank well OD)×100
Criteria for preliminary screening: during preliminary screening, an example compound is regarded as effective in inhibition as long as its inhibitory rate is above 20% for Hsp70 ATPase at 200 μM.

Row | inhibition at 200 µM (Hsp70 ATPase) | Compound | CDI of example compounds and Lapatinib, BT474 (BT474) | CDI of example compounds and Lapatinib, MDA-MB-361 (MDA-MB-361) | CDI of example compounds and Lapatinib, MDA-MB-453 (MDA-MB-453) | CDI of example compounds and Lapatinib, SK-BR3 (SK-BR3) | CDI of example compounds and Lapatinib, BT/Lap^R1.0 (BT/Lap^R1.0) | CDI of example compounds and Lapatinib, SK/Lap^R1.0 (SK/Lap^R1.0)
1 | 21.4% | CC(C)(C)C(NC(=O)/C=C/c1ccccc1)NC(=S)NC1CCCCC1 (stereo not drawn) [Example 56, N-[1-(3-cyclohexylthioureido)-2,2-dimethylpropyl] cinnamamide] | 0.77 | 0.96 | 1.32 | 1.19 | 1.21 | 1
2 | 65.4% | Cc1ccccc1NC(=S)NC(NC(=O)/C=C/c1ccccc1)C1CC1 (stereo not drawn) [Example 49, N-[cyclopropyl-(3-o-methylphenylthioureido)-methyl] cinnamamide] | 0.9 | 0.95 | 1.2 | 1.08 | 0.96 | 0.99
3 | 24.4% | COc1cc(/C=C/C(=O)NC(NC(=S)NC2CCCCC2)C(C)C)cc(OC)c1OC (stereo not drawn) [Example 53, (2E)-N-[1-(3-cyclohexylthioureido)-2-methylpropyl]-3-(3,4,5-trimethoxyphenyl) acrylamide] | 0.82 | 1.19 | 1.33 | 0.97 | 0.8 | 1.23

Second part, the compound before the results:

Row | Compound | inhibition at 200 µM (Hsp70 ATPase) | CDI of example compounds and Lapatinib, BT474 (BT474) | CDI of example compounds and Lapatinib, MDA-MB-361 (MDA-MB-361) | CDI of example compounds and Lapatinib, MDA-MB-453 (MDA-MB-453) | CDI of example compounds and Lapatinib, SK-BR3 (SK-BR3) | CDI of example compounds and Lapatinib, BT/Lap^R1.0 (BT/Lap^R1.0) | CDI of example compounds and Lapatinib, SK/Lap^R1.0 (SK/Lap^R1.0)
4 | COc1cc(/C=C/C(=O)NC(NC(=S)Nc2cccnc2)C(C)(C)C)cc(OC)c1OC (stereo not drawn) [Example 27, (2E)-N-[2,2-dimethyl-1-(3-pyridin-3-ylthioureido)propyl]-3-(3,4,5-trimethoxyphenyl) acrylamide] | 2.17% | 0.98 | 0.96 | 1.32 | 1 | 1.01 | 0.97
5 | COc1cc(/C=C/C(=O)NC(NC(=S)Nc2ccccc2)C2CC2)cc(OC)c1OC (stereo not drawn) [Example 28, (2E)-N-[cyclopropyl-(3-phenylthioureido)-methyl]-3-(3,4,5-trimethoxyphenyl) acrylamide] | 50.5% | 1.07 | 0.93 | 1.21 | 1.06 | 0.99 | 0.95
6 | CNC(=S)NC(CC(C)C)NC(=O)/C=C/c1cc(OC)c(OC)c(OC)c1 (stereo not drawn) [Example 43, (2E)-N-[3-methyl-1-(3-methylthioureido)butyl]-3-(3,4,5-trimethoxyphenyl) acrylamide] | 7.62% | 1.03 | 0.95 | 1.28 | 1 | 1 | 0.93
